One compound from patent publication US9845327B2, “Treatment of proteinopathies” (THE GENERAL HOSPITAL CORPORATION, priority 2011, dated 2017) can be followed below.

In assay [1] the test system is human dopamine neurons generated from iPS cells. Nature of the assay: Proteolysis by radioactive pulse-chase in human iPS dopamine neurons. The format is cell-based. As to conditions: wild-type neurons; 100 μM IFG 5 days, 1 day wash-out. As for the experimental part:
(§1) In this Example, human dopamine neurons generated from iPS cells of an unaffected control were treated with a pharmacological chaperone activator of GCase polypeptide, isofagomine (IFG). […] Treatment of wild-type neurons with 100 μM IFG for 5 days followed by 1 day wash-out increased the levels of GCase polypeptide (FIGS. 15A and 15B). This increase was likely due to the fact that wild-type GCase polypeptide was occasionally misfolded in the ER and degraded (about 30% of the total made in the ER), and IFG appeared to also stabilize the wild-type misfolded forms.
In this Example, it was further determined if the effects discussed above could also be replicated with non-native site binding compounds that can act as allosteric activators of GCase polypeptide, and therefore unlike IFG, would not require a washout to activate GCase polypeptide. […]
Proteolysis of long-lived proteins was determined by radioactive pulse-chase using ^3H-leucine. […] Samples were centrifuged at 20,000×g for 20 min, 4° C., and the radioactivity was measured in 5 ml of scintillation cocktail using a Beckman LS 1701 liquid scintillation counter (Beckman Instruments). Precipitated protein pellets were extracted in 200 μl of Na deoxycholate, 0.1 M NaOH, and radioactivity was determined. Percent proteolysis was calculated as described in detail elsewhere (Kaushik et al. Methods Enzymol. 452: 297, 2009). […]

The next assay concerns the target T1, GCase polypeptide (Homo sapiens, UniProt P04062).
T1 construct: endogenous in cells; host or cells: human iPS-derived midbrain dopamine neurons (healthy control; PD patient with SNCA triplication, Coriell ND27760)
T1 sequence (P04062 40-536): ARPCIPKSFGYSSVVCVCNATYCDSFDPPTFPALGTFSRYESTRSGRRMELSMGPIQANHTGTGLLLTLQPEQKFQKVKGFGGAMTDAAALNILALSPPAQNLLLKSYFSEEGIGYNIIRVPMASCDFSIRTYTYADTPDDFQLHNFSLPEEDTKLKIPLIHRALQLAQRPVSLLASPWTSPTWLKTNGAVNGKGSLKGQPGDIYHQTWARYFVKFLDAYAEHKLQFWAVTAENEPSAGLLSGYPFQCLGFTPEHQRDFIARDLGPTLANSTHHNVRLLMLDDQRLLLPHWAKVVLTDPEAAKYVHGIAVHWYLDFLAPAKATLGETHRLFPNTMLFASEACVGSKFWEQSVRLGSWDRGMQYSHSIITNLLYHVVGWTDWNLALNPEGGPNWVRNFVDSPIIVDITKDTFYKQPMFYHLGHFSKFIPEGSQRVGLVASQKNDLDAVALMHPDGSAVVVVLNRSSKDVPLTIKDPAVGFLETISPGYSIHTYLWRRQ
Nature of the assay: GCase polypeptide levels and post-ER forms by western blot in human iPS dopamine neurons. The assay is classed as cell-based. As to conditions: wild-type neurons from an unaffected control; 100 μM IFG for 5 days followed by 1 day wash-out. As for the experimental part: as §1
It was also shown in this Example that treatment with the GCase polypeptide activator increased the levels of total GCase protein and increased the post-ER forms, indicating enhancement of flux to the lysosome (FIG. 19B).
In this Example, the effect of combining the GCase polypeptide pharmacological chaperone IFG with the antioxidant n-acetyl-cysteine (NAC) on GCase polypeptide maturation in PD iPS neurons was tested. Neurons were treated with either IFG, NAC, or IFG and NAC together, and GCase polypeptide maturation was analyzed by western blot.
Most materials for SDS-PAGE were obtained from Invitrogen (NuPAGE system). Protein lysates were boiled in sample buffer (20 mM Tris, 1% (v/v) glycerol, 180 mM β-mercaptoethanol, 0.003% (w/v) bromophenol blue, 2% (w/v) SDS, pH 6.8), resolved on 4%-12% Bis-Tris polyacrylamide precast gels in a MOPS-SDS running buffer, or 4%-12% Tris-Glycine gels. 10% Tris-Glycine gels were utilized for some GCase polypeptide western blot's (FIGS. 13B, 13D, and 13E, and FIGS. 14C and 14F). […] Blots were blocked in Odyssey blocking buffer (Li-Cor biosciences) containing 0.05% Tween, or 5% non-fat dry milk in TBS-T 0.2%, followed by incubation with primary antibodies (see above for dilutions), and detected with anti-mouse or -rabbit IgG conjugated to IRDye 680 or 800 (1:10,000, Li-Cor biosciences). […] Any nonspecific bands detected were not included in densitometric analyses. […]

For the compound `OC[C@H]1CNC[C@@H](O)[C@@H]1O` [IFG, isofagomine], in assay [1], the “Proteolysis rate, fold increase compared to controls” value is 3 fold. In addition, the “levels of GCase polypeptide” value at GCase polypeptide was “increased”.
